Publication PMC7044277 (Nature Communications, 2020)
Several values for one entry are separate records, joined by “and”; a condition that tells them apart may be missing. Equal entries are not always repeated.

Columns and labels:
[1] = target: T1, DRD4 (D4.4 variant) wild-type (Homo sapiens, UniProt P21917); assay: Radioligand competition binding, [3H]-N-methylspiperone; conditions: DRD4; [3H]-methylspiperone (0.8-1.0 nM); read-out: Ki
T1 sequence (P21917 1-419): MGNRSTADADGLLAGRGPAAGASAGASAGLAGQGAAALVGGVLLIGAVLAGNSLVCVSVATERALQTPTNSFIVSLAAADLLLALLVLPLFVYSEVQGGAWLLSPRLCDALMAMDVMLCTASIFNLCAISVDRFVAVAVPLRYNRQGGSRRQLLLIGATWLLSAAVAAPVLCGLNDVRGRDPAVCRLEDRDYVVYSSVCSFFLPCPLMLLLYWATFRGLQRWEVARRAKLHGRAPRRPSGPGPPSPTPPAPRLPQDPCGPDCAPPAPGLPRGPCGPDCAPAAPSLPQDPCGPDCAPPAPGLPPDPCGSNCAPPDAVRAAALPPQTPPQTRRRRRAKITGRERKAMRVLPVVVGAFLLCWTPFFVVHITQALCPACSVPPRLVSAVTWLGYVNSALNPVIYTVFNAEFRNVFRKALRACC

DRD2 F1103.28L = target: T2, DRD2 F1103.28L (Homo sapiens, UniProt P14416, F110L); assay: β-arrestin2 recruitment (Tango), mutant; type: cell-based
T2 construct: expressed in transfected cells; host or cells: HEK293T (ATCC CRL-11268)
T2 sequence (P14416 whole entry F110L): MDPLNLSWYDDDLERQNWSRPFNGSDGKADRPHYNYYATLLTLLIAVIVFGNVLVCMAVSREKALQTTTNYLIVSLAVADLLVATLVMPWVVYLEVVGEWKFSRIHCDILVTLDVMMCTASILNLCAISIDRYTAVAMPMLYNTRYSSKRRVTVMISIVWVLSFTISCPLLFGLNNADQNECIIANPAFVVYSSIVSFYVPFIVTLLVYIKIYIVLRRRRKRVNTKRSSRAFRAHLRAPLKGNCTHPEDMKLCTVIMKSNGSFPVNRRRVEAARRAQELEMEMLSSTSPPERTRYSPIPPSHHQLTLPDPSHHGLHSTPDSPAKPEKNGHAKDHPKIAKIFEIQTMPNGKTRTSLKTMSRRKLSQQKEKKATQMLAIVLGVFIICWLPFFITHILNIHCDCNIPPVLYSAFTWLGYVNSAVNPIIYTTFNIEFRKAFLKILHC

5HT1A = target: T3, 5HT1A (Homo sapiens, UniProt P08908); assay: β-arrestin2 recruitment (Tango); type: cell-based; conditions: Fig_S10f, single replicates
T3 construct: expressed in transfected cells; host or cells: HTLA cells expressing TEV-fused β-arrestin2
T3 sequence (P08908 1-422): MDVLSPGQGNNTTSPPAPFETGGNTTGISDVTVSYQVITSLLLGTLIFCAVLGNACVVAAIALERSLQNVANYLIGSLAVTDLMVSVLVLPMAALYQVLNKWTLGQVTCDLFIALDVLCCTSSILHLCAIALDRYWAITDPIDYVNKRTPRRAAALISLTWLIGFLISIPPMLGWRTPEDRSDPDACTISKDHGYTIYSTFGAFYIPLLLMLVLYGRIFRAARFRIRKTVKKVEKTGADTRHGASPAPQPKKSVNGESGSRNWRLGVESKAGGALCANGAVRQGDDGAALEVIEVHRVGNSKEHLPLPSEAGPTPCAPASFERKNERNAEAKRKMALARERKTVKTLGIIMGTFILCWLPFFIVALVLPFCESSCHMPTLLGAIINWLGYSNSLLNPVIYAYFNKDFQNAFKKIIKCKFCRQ

5HT1F = target: T4, 5HT1F (Homo sapiens, UniProt P30939); assay: β-arrestin2 recruitment (Tango); type: cell-based; conditions: for β-arrestin2 recruitment response, agonist mode (single replicate values): Fig_S10j; for Fig_S10j dose-response, drug alone (agonist mode), β-arrestin2 recruitment: single replicate values
T4 construct: expressed in transfected cells; host or cells: HTLA cells expressing TEV-fused β-arrestin2
T4 sequence (P30939 1-366): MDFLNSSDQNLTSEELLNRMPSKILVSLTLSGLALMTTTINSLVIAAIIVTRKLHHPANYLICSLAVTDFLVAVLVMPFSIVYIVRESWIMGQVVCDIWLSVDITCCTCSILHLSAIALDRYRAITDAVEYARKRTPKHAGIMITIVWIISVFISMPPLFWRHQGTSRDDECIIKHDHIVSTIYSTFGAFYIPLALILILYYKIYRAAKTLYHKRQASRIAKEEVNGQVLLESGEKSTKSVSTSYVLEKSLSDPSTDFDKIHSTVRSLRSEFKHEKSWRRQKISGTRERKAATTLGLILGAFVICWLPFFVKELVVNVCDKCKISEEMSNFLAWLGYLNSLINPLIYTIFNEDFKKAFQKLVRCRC

DRD3 wild-type = DRD3 wild-type (Homo sapiens, UniProt P35462); assay: Radioligand competition binding, [3H]-N-methylspiperone; conditions: DRD3; [3H]-methylspiperone (0.8-1.0 nM); read-out: Ki
Sequence of DRD3 wild-type (P35462 whole entry): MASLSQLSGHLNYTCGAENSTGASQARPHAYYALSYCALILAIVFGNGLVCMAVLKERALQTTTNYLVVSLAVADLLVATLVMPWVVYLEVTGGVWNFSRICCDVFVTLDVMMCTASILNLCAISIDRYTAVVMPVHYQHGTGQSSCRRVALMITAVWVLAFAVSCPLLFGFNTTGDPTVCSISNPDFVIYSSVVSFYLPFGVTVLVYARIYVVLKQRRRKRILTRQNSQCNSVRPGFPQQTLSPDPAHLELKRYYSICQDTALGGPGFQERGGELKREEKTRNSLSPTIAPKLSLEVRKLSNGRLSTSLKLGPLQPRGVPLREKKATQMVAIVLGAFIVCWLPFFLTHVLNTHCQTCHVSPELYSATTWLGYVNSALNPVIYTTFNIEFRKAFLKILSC

[2] = system: serotonin receptor of Fig_S10g (subtype not named); assay: β-arrestin2 recruitment (Tango), agonist activity, panel Fig_S10g (serotonin as reference; receptor not given); type: cell-based, human

For `CCOc1cccc2cc([C@H](C)NCC3(O)CCCCC3)oc12` [O4SE6], the Ki [1] was over 10 µM, the EC50 (DRD2 F1103.28L) was over 10 µM and the “β-arrestin2 recruitment response, agonist mode (normalized)” value (5HT1A; Log[Drug] -9.52) was -0.8354 and -0.6725 and 0.6683 and 0.2383 and 1.852 and 0.7592 and 0.2273 and 0.7234 and 0.9859. For the same molecule, the “β-arrestin2 recruitment response, agonist mode (normalized)” value (5HT1A; Log[Drug] -10) was 0.6642 and 0.6683 and -0.5096 and -0.1895 and -0.3206 and 1.295 and 0.9379 and 4.834 and 0.8483, the “β-arrestin2 recruitment response, agonist mode (normalized)” value (5HT1A; Log[Drug] -10.52) was 0.8312 and -0.848 and -0.5013 and 0.469 and 0.1267 and -0.3585 and 11.6165 and 0.685 and 0.3585 and the “β-arrestin2 recruitment response, agonist mode (normalized)” value (5HT1A; Log[Drug] -11) was -0.188 and 0.8354 and -0.1713 and -0.4961 and -0.2339 and 0.4322 and 2.113 and 0.3457 and 0.4834. For the same molecule, the “β-arrestin2 recruitment response, agonist mode (normalized)” value (5HT1A; Log[Drug] -11.52) was 1.3325 and -0.1754 and -0.6683 and -0.2719 and 3.032 and -0.4646 and -0.4129 and 1.767 and 1.504, the “β-arrestin2 recruitment response, agonist mode (normalized)” value (5HT1A; Log[Drug] -12) was 0.1671 and -0.9983 and -0.6683 and -0.2567 and -0.0639 and 2.424 and -0.7778 and 0.7554 and 0.3457 and the “β-arrestin2 recruitment response, agonist mode (single replicate values)” value (5HT1F; Log[Drug] -8) was 1.302 and -0.3873 and 2.074 and -2.101 and -1.406 and -2.308 and -1.812 and -0.8607 and -0.04463. For the same molecule, the “β-arrestin2 recruitment response, agonist mode (single replicate values)” value (5HT1F; Log[Drug] -8.52) was 0.304 and 0.5074 and 1.87 and 1.981 and -1.055 and -1.27 and -1.358 and -1.238 and -0.4845, the “β-arrestin2 recruitment response, agonist mode (single replicate values)” value (5HT1F; Log[Drug] -9) was 0.9904 and 0.706 and 0.885 and 0.6945 and 9.325 and -1.862 and -2.066 and -0.6583 and 0.2247 and the “β-arrestin2 recruitment response, agonist mode (single replicate values)” value (5HT1F; Log[Drug] -9.52) was 3.047 and -0.8801 and 2.567 and 4.29 and 2.342 and -1.433 and -1.621 and -2.0051 and -0.408. For the same molecule, the “β-arrestin2 recruitment response, agonist mode (single replicate values)” value (5HT1F; Log[Drug] -10) was 4.819 and -0.0956 and 1.856 and -1.573 and -2.24 and -0.1941 and -0.1562 and -0.3459 and -1.4329, the “β-arrestin2 recruitment response, agonist mode (single replicate values)” value (5HT1F; Log[Drug] -10.52) was 0.4927 and 0.6104 and 0.5001 and 1.318 and -2.635 and -1.961 and -1.313 and -0.102 and -0.1036 and the “β-arrestin2 recruitment response, agonist mode (single replicate values)” value (5HT1F; Log[Drug] -11) was 1.294 and -0.1888 and 1.488 and -1.416 and -3.18 and -0.3234 and -0.2837 and 1.1189 and -0.7348. The “β-arrestin2 recruitment response, agonist mode (single replicate values)” value (5HT1F; Log[Drug] -11.52) was 2.172 and 1.385 and 0.6864 and -1.406 and -1.13 and -0.05788 and -1.691 and -2.064 and -2.201, the “β-arrestin2 recruitment response, agonist mode (single replicate values)” value (5HT1F; Log[Drug] -12) was 0.3211 and 1.218 and -0.05883 and -2.747 and -2.758 and -0.03745 and -0.9037 and -1.7453 and 2.037 and the “Fig_S10j dose-response, drug alone (agonist mode), β-arrestin2 recruitment” value (from here on “Fig_S10j dose-response, drug alone”) (5HT1F; Log[Drug] -5) was 0.3849 and -0.983 and 0.7697 and -1.569 and -1.842 and 2.318 and -0.9197 and -0.3475 and -1.47. The “Fig_S10j dose-response, drug alone” value (5HT1F; Log[Drug] -5.52) was 7.151 and 5.788 and -0.505 and -0.4698 and 0.6264 and -0.6469 and -1.685 and -0.2789 and -1.819, the “Fig_S10j dose-response, drug alone” value (5HT1F; Log[Drug] -6) was 2.525 and 0.2795 and 1.682 and -0.463 and -1.025 and 2.25 and -2.251 and -0.6646 and -0.8511 and the “Fig_S10j dose-response, drug alone” value (5HT1F; Log[Drug] -6.52) was 3.045 and 0.7943 and 0.9757 and -1.712 and -2.09 and -1.297 and -2.011 and -0.3459 and -1.811. For the same molecule, the “Fig_S10j dose-response, drug alone” value (5HT1F; Log[Drug] -7) was 1.287 and -0.1961 and 3.15 and 1.852 and -1.692 and -1.42 and -0.2821 and 1.046 and -0.8687, the “Fig_S10j dose-response, drug alone” value (5HT1F; Log[Drug] -7.52) was -0.2819 and 1.395 and 1.76 and -1.559 and -1.409 and -1.542 and -1.242 and 0.6631 and 0.4096 and the Ki (DRD3 wild-type) was 810 nM. For the same molecule, the “response, single replicate of concentration-response curve” value (“response, single replicate” below) ([2]; Log[Drug] -6.52, drug alone) was -6.59, the “response, single replicate” value ([2]; Log[Drug] -7, drug alone) was -3.19 and -7.082 and 4.545 and 9.195 and -2.738 and -3.211 and 7.129 and -1.468 and 1.444 and the “response, single replicate” value ([2]; Log[Drug] -7.52, drug alone) was -9.03 and -3.911 and 11.866 and -9.097 and -3.819 and 15.0981 and -7.146 and 2.056 and -13.2444.
